Earlier results on one molecule are cited in US9109008B2, “Tubulysin compounds, methods of making and use” (priority 2013, dated 2015).

The data set deals with cancer cell lines. The settings on record: Kaur et al. 2006.

Take `CC[C@H](C)[C@H](NC(=O)[C@H]1CCCCN1C)C(=O)N(COC(=O)CC(C)C)[C@H](C[C@@H](OC(C)=O)c1nc(C(=O)N[C@@H](Cc2ccc(O)cc2)C[C@H](C)C(=O)O)cs1)C(C)C` [tubulysin A]: the “antiproliferative potency compared with other antimitotic agents” value is “more potent than other antimitotic agents such as paclitaxel and vinblastine”.
